From patent US11352344B2, “Antagonists of the muscarinic acetylcholine receptor M4” (Vanderbilt University, priority 2017, dated 2022)

Target: T1, Human M4 (Homo sapiens, UniProt P08173)
T1 construct: expressed in transfected cells; host or cells: CHO-K1 (Chinese hamster ovary) cells, stably co-transfected with Gqi5
T1 sequence (P08173 1-479): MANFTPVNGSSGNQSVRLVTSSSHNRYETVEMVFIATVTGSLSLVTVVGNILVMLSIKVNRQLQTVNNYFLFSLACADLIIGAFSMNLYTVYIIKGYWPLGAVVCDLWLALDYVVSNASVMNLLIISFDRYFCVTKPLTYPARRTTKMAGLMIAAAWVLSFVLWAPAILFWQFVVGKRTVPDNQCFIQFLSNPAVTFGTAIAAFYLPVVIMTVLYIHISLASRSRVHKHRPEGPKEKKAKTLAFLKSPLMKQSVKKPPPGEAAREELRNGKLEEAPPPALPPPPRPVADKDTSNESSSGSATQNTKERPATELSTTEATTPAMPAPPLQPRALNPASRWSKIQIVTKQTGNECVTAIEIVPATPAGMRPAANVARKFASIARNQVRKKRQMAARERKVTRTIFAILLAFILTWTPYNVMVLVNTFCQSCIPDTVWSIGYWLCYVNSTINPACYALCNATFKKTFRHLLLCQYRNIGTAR
Assay: mAChR M4 cell-based functional assay (calcium flux, antagonism of EC80 acetylcholine response)
Settings: for remaining activity at 30 µM: % ACh maximum at 30 μM, human M4, read-out: Emin; for IC50: M4/Gqi5/CHO-K1 cells, decrease of response to EC80 acetylcholine
Experimental: Human or rat M4 cDNA, along with the chimeric G protein Gqi5, were transfected into Chinese hamster ovary (CHO-K1) cells purchased from the American Type Culture Collection using Lipofectamine2000. M4/Gqi5/CHO cells were grown in Ham's F-12 medium containing 10% heat-inactivated fetal bovine serum (FBS), 20 mM HEPES, 500 μg/mL G418 sulfate, and 200 μg/mL Hygromycin B.
For high throughput measurement of agonist-evoked increases in intracellular calcium, CHO-K1 cells stably expressing muscarinic receptors were plated in growth medium lacking G418 and hygromycin at 15,000 cells/20 μL/well in Greiner 384-well black-walled, tissue culture (TC)-treated, clear-bottom plates (VWR). Cells were incubated overnight at 37° C. and 5% CO2. The next day, cells were washed using an ELX 405 (BioTek) with assay buffer; the final volume was then aspirated to 20 μL. Next, 20 μL of a 2.3 μM stock of Fluo-4/acetoxymethyl ester (Invitrogen, Carlsbad, Calif.), prepared as a 2.3 mM stock in DMSO and mixed in a 1:1 ratio with 10% (w/v) Pluronic F-127 and diluted in assay buffer, was added to the wells and the cell plates were incubated for 50 min at 37° C. and 5% CO2. Dye was removed by washing with the ELX 405 and the final volume was aspirated to 20 μL. Compound master plates were formatted in a 10 point concentration-response curve (CRC) format (1:3 dilutions) in 100% DMSO with a starting concentration of 10 or 1 mM using a BRAVO liquid handler (Agilent). Test compound CRCs were then transferred to daughter plates (240 nL) using the Echo acoustic plate reformatter (Labcyte, Sunnyvale, Calif.) and then diluted into assay buffer (40 μL) to a 2× stock using a Thermo Fisher Combi (Thermo Fisher Scientific, Waltham, Mass.).
Calcium flux was measured using the Functional Drug Screening System (FDSS) 6000 or 7000 (Hamamatsu Corporation, Tokyo, Japan) as an increase in the fluorescent static ratio. Compounds were applied to cells (20 μL, 2×) using the automated system of the FDSS at 2 seconds into the protocol and the data were collected at 1 Hz. At 143 s, 10 μL of an EC20 concentration of the muscarinic receptor agonist acetylcholine was added (5×), followed by the addition of 12 μL of an EC80 concentration of acetylcholine at the 268 s time point (5×). Agonist activity was analyzed as a concentration-dependent increase in calcium mobilization upon compound addition. Positive allosteric modulator activity was analyzed as a concentration-dependent increase in the EC20 acetylcholine response. Antagonist activity was analyzed as a concentration-dependent decrease in the EC80 acetylcholine response; for the purposes of the tables herein, an IC50 (inhibitory concentration 50) was calculated as a concentration-dependent decrease of the response elicited by an EC80 concentration of acetylcholine. Concentration-response curves were generated using a four-parameter logistical equation in XLFit curve fitting software (IDBS, Bridgewater, N.J.) for Excel (Microsoft, Redmond, Wash.) or Prism (GraphPad Software, Inc., San Diego, Calif.) or the Dotmatics software platform (Dotmatics, Bishop's Stortford, UK).
Compounds were synthesized as described above. Activity (IC50 and Emin) was determined in the mAChR M4 cell-based functional assay as described above and the data are shown in Table 5. The compound numbers correspond to the compound numbers used in Examples 1-4 and Tables 1-4.

Q: Which remaining activity at 30 µM does the source give for Cc1cnn(C)c1-c1ccc(NC2CCC3CN(CCC(C)(C)C)CC32)nn1 (stereo not shown) [Compound 1, 2-(3,3-Dimethylbutyl)-N-[6-(2,4-dimethylpyrazol-3-yl)pyridazin-3-yl]-3,3a,4,5,6,6a-hexahydro-1H-cyclopenta[c]pyrrol-4-amine] here?
A: 31.1%

Q: And the IC50?
A: > 10000 nM

Q: For Cc1cnn(C)c1-c1ccc(NC2CCC3CN(CC45CC6CC(CC(C6)C4)C5)CC32)nn1 (stereo not shown) [Compound 2, 2-(1-adamantylmethyl)-N-[6-(2,4-dimethylpyrazol-3-yl)pyridazin-3-yl]-3,3a,4,5,6,6a-hexahydro-1H-cyclopenta[c]pyrrol-4-amine], which remaining activity at 30 µM is on record?
A: 8.16%

Q: And the IC50?
A: 2170 nM

Q: How did the remaining activity at 30 µM turn out when Cc1cnn(C)c1-c1ccc(NC2CCC3CN(CC4CC5C=CC4C5)CC32)nn1 (stereo not shown) [Compound 3, 2-(5-bicyclo[2.2.1]hept-2-enylmethyl)-N-[6-(2,4-dimethylpyrazol-3-yl)pyridazin-3-yl]-3,3a,4,5,6,6a-hexahydro-1H-cyclopenta[c]pyrrol-4-amine] was run?
A: 14%

Q: And the IC50?
A: 3280 nM

Q: Which results are given for Cc1cccnc1CN1CC2CCC(Oc3ccc(-c4c(C)cnn4C)nn3)C2C1 (stereo not shown) [Compound 4, 4-[6-(2,4-Dimethylpyrazol-3-yl)pyridazin-3-yl]oxy-2-[(3-methyl-2-pyridyl)methyl]-3,3a,4,5,6,6a-hexahydro-1H-cyclopenta[c]pyrrole]?
A: remaining activity at 30 µM: 31.9%; IC50: > 10000 nM

Q: Cc1cnn(C)c1-c1ccc(OC2CCC3CN(CCC(C)(C)C)CC32)nn1 (stereo not shown) [Compound 5, 2-(3,3-dimethylbutyl)-4-[6-(2,4-dimethylpyrazol-3-yl)pyridazin-3-yl]oxy-3,3a,4,5,6,6a-hexahydro-1H-cyclopenta[c]pyrrole] was tested. Which remaining activity at 30 µM did it give?
A: 9.66%

Q: What about the IC50 of the same molecule?
A: 3570 nM

Q: Cc1cnn(C)c1-c1ccc(OC2CCC3CN(CC45CC6CC(CC(C6)C4)C5)CC32)nn1 (stereo not shown) [Compound 6, 2-(1-adamantylmethyl)-4-[6-(2,4-dimethylpyrazol-3-yl)pyridazin-3-yl]oxy-3,3a,4,5,6,6a-hexahydro-1H-cyclopenta[c]pyrrole] was tested. Which remaining activity at 30 µM did it give?
A: 3.95%

Q: And the IC50?
A: 1030 nM

Q: With Cc1cnn(C)c1-c1ccc(OC2CCC3CN(CC4CC5C=CC4C5)CC32)nn1 (stereo not shown) [Compound 7, 2-(5-bicyclo[2.2.1]hept-2-enylmethyl)-4-[6-(2,4-dimethylpyrazol-3-yl)pyridazin-3-yl]oxy-3,3a,4,5,6,6a-hexahydro-1H-cyclopenta[c]pyrrole] as the molecule, how does the remaining activity at 30 µM read?
A: 5.46%

Q: And the IC50?
A: 1360 nM

Q: How did the remaining activity at 30 µM turn out when Cc1cnn(C)c1-c1ccc(OC2CCC3CN(Cc4ccccc4)CC32)nn1 (stereo not shown) [Compound 8, 2-benzyl-4-[6-(2,4-dimethylpyrazol-3-yl)pyridazin-3-yl]oxy-3,3a,4,5,6,6a-hexahydro-1H-cyclopenta[c]pyrrole] was run?
A: 43.3%

Q: What about the IC50 of the same molecule?
A: > 10000 nM

Q: What does the source list for Cc1cnn(C)c1-c1ccc(OC2CCC3CN(CCc4ccccc4)CC32)nn1 (stereo not shown) [Compound 9, 4-[6-(2,4-dimethylpyrazol-3-yl)pyridazin-3-yl]oxy-2-(2-phenylethyl)-3,3a,4,5,6,6a-hexahydro-1H-cyclopenta[c]pyrrole]?
A: remaining activity at 30 µM: 29.6%; IC50: > 10000 nM

Q: Which results are given for Cc1cnn(C)c1-c1ccc(NCCC2CCC3CN(CCC(C)(C)C)CC23)nn1 (stereo not shown) [Compound 10, N-[2-[2-(3,3-Dimethylbutyl)-3,3a,4,5,6,6a-hexahydro-1H-cyclopenta[c]pyrrol-4-yl]ethyl]-6-(2,4-dimethylpyrazol-3-yl)pyridazin-3-amine]?
A: remaining activity at 30 µM: 4.47%; IC50: 130 nM

Q: Which results are given for Cc1cnn(C)c1-c1ccc(NCCC2CCC3CN(CC4CCCOC4)CC23)nn1 (stereo not shown) [Compound 11, 6-(2,4-dimethylpyrazol-3-yl)-N-[2-[2-(tetrahydropyran-3-ylmethyl)-3,3a,4,5,6,6a-hexahydro-1H-cyclopenta[c]pyrrol-4-yl]ethyl]pyridazin-3-amine]?
A: remaining activity at 30 µM: 20.9%; IC50: > 10000 nM

Q: For Cc1cnn(C)c1-c1ccc(NCCC2CCC3CN(CC4CCOCC4)CC23)nn1 (stereo not shown) [Compound 12, 6-(2,4-dimethylpyrazol-3-yl)-N-[2-[2-(tetrahydropyran-4-ylmethyl)-3,3a,4,5,6,6a-hexahydro-1H-cyclopenta[c]pyrrol-4-yl]ethyl]pyridazin-3-amine], which remaining activity at 30 µM is on record?
A: 29.4%

Q: And the IC50?
A: > 10000 nM

Q: How did the remaining activity at 30 µM turn out when Cc1cnn(C)c1-c1ccc(NCCC2CCC3CN(CC4CC5C=CC4C5)CC23)nn1 (stereo not shown) [Compound 13, N-[2-[2-(5-bicyclo[2.2.1]hept-2-enylmethyl)-3,3a,4,5,6,6a-hexahydro-1H-cyclopenta[c]pyrrol-4-yl]ethyl]-6-(2,4-dimethylpyrazol-3-yl)pyridazin-3-amine] was run?
A: 3.75%

Q: And the IC50?
A: 65 nM

Q: Cc1cccnc1CN1CC2CCC(CCNc3ccc(-c4c(C)cnn4C)nn3)C2C1 (stereo not shown) [Compound 14, 6-(2,4-dimethylpyrazol-3-yl)-N-[2-[2-[(3-methyl-2-pyridyl)methyl]-3,3a,4,5,6,6a-hexahydro-1H-cyclopenta[c]pyrrol-4-yl]ethyl]pyridazin-3-amine] was tested. Which remaining activity at 30 µM did it give?
A: 7.73%

Q: What about the IC50 of the same molecule?
A: 1780 nM

Q: How did the remaining activity at 30 µM turn out when Cc1cnn(C)c1-c1ccc(NCCC2CCC3CN(Cc4ccccc4)CC23)nn1 (stereo not shown) [Compound 15, N-[2-(2-benzyl-3,3a,4,5,6,6a-hexahydro-1H-cyclopenta[c]pyrrol-4-yl)ethyl]-6-(2,4-dimethylpyrazol-3-yl)pyridazin-3-amine] was run?
A: 8.5%

Q: What about the IC50 of the same molecule?
A: 2260 nM

Q: Which remaining activity at 30 µM does the source give for Cc1cnn(C)c1-c1ccc(NCCC2CCC3CN(CCc4ccccc4)CC23)nn1 (stereo not shown) [Compound 16, 6-(2,4-dimethylpyrazol-3-yl)-N-[2-[2-(2-phenylethyl)-3,3a,4,5,6,6a-hexahydro-1H-cyclopenta[c]pyrrol-4-yl]ethyl]pyridazin-3-amine] here?
A: 6.59%

Q: What about the IC50 of the same molecule?
A: 2210 nM

Q: Which results are given for Cc1cnn(C)c1-c1ccc(NCCC2CCC3CN(CCCc4ccccc4)CC23)nn1 (stereo not shown) [Compound 17, 6-(2,4-dimethylpyrazol-3-yl)-N-[2-[2-(3-phenylpropyl)-3,3a,4,5,6,6a-hexahydro-1H-cyclopenta[c]pyrrol-4-yl]ethyl]pyridazin-3-amine]?
A: remaining activity at 30 µM: 5.4%; IC50: 1050 nM

Q: With Cc1cnn(C)c1-c1ccc(NCCC2CCC3CN(CC45CC6CC(CC(C6)C4)C5)CC23)nn1 (stereo not shown) [Compound 18, N-[2-[2-(1-adamantylmethyl)-3,3a,4,5,6,6a-hexahydro-1H-cyclopenta[c]pyrrol-4-yl]ethyl]-6-(2,4-dimethylpyrazol-3-yl)pyridazin-3-amine] as the molecule, how does the remaining activity at 30 µM read?
A: 3.52%

Q: And the IC50?
A: 402 nM

Q: How did the remaining activity at 30 µM turn out when Cc1cnn(C)c1-c1ccc(NCC2CCC3CN(CCC(C)(C)C)CC23)nn1 (stereo not shown) [Compound 19, N-[[2-(3,3-Dimethylbutyl)-3,3a,4,5,6,6a-hexahydro-1H-cyclopenta[c]pyrrol-4-yl]methyl]-6-(2,4-dimethylpyrazol-3-yl)pyridazin-3-amine] was run?
A: 5.11%

Q: And the IC50?
A: 149 nM

Q: Cc1cnn(C)c1-c1ccc(NCC2CCC3CN(CC45CC6CC(CC(C6)C4)C5)CC23)nn1 (stereo not shown) [Compound 20, N-[[2-(1-adamantylmethyl)-3,3a,4,5,6,6a-hexahydro-1H-cyclopenta[c]pyrrol-4-yl]methyl]-6-(2,4-dimethylpyrazol-3-yl)pyridazin-3-amine] was tested. Which remaining activity at 30 µM did it give?
A: 4.4%

Q: And the IC50?
A: 53 nM
